Residual kinase activity data for two compounds are collected here from publication PMC11167047 (Cell Death Discovery, 2024).

What all share (test): kinome screen (33PanQinase)
Holding throughout (type): biochemical

The target in assay [1] is T1, IKKβ (Homo sapiens, UniProt O14920).
T1 construct: purchased Reaction Biology Europe GmbH (formerly ProQinase)
T1 sequence (O14920 1-756): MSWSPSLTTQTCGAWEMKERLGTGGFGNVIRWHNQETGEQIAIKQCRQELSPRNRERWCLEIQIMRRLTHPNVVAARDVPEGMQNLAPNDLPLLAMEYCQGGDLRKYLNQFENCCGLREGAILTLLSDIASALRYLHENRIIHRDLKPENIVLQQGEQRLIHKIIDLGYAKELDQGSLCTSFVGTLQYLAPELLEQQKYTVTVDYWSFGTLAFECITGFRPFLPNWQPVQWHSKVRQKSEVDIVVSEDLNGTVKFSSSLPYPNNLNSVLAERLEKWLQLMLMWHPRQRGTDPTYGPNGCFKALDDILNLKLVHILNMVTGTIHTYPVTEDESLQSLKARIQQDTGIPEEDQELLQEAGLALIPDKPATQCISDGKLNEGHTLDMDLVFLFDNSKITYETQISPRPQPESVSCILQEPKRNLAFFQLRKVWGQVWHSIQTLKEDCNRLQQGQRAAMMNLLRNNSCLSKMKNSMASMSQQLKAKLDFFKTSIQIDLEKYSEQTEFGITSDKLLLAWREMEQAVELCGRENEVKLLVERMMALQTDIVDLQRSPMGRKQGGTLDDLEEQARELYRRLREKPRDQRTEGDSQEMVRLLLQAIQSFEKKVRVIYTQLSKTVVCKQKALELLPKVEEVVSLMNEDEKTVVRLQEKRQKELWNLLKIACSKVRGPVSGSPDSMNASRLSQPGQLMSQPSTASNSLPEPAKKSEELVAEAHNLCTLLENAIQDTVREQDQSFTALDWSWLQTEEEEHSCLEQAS
The procedure:
(§1) The Kinome Screening was performed by Reaction Biology Europe GmbH (http://reactionbiology.com; Freiburg i. Br., Germany).

In assay [2] the target is T2, ACVRL1 (Homo sapiens, UniProt P37023).
T2 construct: purchased Reaction Biology Europe GmbH (formerly ProQinase)
The procedure:
as §1

Assay [3] deals with T3, CDK1/CycE1 (Homo sapiens, UniProt P06493).
T3 construct: purchased Reaction Biology Europe GmbH (formerly ProQinase)
The procedure: as §1

The target in assay [4] is T4, CK1Δ (Homo sapiens, UniProt P48730).
T4 construct: purchased Reaction Biology Europe GmbH (formerly ProQinase)
As for the experimental part: as §1

Assay [5] deals with T5, MAPKAPK3 (Homo sapiens, UniProt Q16644).
T5 construct: purchased Reaction Biology Europe GmbH (formerly ProQinase)
As for the experimental part: as §1

Assay [6] concerns the target T6, PDK1 (Homo sapiens, UniProt O15530).
T6 construct: purchased Reaction Biology Europe GmbH (formerly ProQinase)
T6 sequence (O15530 1-556): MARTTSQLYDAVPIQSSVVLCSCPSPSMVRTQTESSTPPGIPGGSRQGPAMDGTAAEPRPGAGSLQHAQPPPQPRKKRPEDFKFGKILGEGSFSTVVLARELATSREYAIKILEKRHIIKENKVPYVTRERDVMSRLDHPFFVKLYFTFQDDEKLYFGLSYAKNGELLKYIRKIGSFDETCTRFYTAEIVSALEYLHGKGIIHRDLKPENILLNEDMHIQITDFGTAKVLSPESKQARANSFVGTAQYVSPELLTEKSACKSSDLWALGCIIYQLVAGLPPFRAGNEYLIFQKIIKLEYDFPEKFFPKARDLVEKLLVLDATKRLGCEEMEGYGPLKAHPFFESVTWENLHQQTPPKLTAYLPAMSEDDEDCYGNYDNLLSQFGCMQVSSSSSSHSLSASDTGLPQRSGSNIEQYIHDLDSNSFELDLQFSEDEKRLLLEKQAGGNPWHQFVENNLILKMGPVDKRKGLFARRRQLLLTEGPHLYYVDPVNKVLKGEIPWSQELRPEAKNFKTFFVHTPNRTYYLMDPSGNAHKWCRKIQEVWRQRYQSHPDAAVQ
As for the experimental part: as §1

In assay [7] the target is T7, PRK2 (Homo sapiens, UniProt Q16513).
T7 construct: purchased Reaction Biology Europe GmbH (formerly ProQinase)
The procedure: as §1

Assay [8] addresses T8, SIK3 (Homo sapiens, UniProt Q9Y2K2).
T8 construct: purchased Reaction Biology Europe GmbH (formerly ProQinase)
The procedure: as §1

Assay [9] deals with T9, CK1γ2 (Homo sapiens, UniProt P78368).
T9 construct: purchased Reaction Biology Europe GmbH (formerly ProQinase)
As for the experimental part: as §1

Assay [10] deals with T10, PRKD2 (Homo sapiens, UniProt Q9BZL6).
T10 construct: purchased Reaction Biology Europe GmbH (formerly ProQinase)
T10 sequence (Q9BZL6 1-878): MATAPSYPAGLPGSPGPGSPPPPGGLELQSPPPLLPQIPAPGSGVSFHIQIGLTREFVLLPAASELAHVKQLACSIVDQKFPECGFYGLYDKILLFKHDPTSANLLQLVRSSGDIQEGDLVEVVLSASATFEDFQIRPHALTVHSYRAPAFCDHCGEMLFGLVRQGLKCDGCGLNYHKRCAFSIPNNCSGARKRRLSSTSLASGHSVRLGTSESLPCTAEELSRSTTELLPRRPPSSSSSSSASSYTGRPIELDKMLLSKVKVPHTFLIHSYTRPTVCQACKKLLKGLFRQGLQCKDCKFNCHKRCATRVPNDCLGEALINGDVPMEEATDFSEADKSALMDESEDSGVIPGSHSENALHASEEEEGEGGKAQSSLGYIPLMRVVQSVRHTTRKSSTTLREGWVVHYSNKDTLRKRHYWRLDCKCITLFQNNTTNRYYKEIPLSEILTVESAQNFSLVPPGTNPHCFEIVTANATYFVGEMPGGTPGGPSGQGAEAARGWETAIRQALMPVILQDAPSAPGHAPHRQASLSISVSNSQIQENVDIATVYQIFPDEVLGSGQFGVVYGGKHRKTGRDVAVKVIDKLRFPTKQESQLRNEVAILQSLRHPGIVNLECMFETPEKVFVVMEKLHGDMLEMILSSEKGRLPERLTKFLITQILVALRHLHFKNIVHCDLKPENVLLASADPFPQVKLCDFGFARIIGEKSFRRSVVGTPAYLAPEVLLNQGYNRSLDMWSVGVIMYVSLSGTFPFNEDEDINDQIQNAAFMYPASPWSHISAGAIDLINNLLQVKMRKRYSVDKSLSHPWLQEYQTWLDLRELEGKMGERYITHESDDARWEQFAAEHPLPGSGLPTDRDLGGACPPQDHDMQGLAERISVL
As for the experimental part: as §1

Assay [11] addresses T11, MARK3 (Homo sapiens, UniProt P27448).
T11 construct: purchased Reaction Biology Europe GmbH (formerly ProQinase)
As for the experimental part:
as §1

T8 sequence (Q9Y2K2 whole entry): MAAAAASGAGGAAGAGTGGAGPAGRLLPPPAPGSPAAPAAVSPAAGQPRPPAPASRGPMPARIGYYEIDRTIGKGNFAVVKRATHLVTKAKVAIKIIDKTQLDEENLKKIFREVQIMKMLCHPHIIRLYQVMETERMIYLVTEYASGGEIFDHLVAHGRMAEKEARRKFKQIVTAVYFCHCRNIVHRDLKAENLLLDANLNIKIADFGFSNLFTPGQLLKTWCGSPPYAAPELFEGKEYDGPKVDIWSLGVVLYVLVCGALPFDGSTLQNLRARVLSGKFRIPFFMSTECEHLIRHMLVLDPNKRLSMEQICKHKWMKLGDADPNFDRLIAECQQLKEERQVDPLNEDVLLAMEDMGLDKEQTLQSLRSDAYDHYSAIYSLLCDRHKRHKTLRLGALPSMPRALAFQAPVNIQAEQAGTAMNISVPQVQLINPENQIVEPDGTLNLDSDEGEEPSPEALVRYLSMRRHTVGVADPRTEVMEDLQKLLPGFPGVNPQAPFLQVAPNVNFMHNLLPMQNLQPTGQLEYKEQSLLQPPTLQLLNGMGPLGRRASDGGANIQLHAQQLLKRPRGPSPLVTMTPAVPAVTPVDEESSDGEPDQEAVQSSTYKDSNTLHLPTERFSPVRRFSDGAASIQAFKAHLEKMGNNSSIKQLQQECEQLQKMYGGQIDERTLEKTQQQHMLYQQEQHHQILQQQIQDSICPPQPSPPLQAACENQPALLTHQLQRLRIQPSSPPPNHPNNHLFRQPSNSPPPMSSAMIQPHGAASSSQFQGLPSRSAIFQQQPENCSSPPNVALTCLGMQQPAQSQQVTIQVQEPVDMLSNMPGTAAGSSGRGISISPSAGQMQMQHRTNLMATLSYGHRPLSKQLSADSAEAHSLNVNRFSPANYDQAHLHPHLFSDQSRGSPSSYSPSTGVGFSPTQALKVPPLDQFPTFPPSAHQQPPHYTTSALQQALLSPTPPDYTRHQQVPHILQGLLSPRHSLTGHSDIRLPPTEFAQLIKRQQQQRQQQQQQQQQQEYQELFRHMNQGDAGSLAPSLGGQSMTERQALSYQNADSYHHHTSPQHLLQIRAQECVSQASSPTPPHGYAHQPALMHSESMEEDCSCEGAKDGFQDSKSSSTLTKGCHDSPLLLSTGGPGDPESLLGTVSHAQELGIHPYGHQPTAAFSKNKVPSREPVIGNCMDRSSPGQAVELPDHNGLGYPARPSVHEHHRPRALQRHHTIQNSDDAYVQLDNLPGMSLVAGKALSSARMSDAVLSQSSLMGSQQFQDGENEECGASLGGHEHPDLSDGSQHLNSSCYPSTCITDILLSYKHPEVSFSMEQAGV
T7 sequence (Q16513 whole entry): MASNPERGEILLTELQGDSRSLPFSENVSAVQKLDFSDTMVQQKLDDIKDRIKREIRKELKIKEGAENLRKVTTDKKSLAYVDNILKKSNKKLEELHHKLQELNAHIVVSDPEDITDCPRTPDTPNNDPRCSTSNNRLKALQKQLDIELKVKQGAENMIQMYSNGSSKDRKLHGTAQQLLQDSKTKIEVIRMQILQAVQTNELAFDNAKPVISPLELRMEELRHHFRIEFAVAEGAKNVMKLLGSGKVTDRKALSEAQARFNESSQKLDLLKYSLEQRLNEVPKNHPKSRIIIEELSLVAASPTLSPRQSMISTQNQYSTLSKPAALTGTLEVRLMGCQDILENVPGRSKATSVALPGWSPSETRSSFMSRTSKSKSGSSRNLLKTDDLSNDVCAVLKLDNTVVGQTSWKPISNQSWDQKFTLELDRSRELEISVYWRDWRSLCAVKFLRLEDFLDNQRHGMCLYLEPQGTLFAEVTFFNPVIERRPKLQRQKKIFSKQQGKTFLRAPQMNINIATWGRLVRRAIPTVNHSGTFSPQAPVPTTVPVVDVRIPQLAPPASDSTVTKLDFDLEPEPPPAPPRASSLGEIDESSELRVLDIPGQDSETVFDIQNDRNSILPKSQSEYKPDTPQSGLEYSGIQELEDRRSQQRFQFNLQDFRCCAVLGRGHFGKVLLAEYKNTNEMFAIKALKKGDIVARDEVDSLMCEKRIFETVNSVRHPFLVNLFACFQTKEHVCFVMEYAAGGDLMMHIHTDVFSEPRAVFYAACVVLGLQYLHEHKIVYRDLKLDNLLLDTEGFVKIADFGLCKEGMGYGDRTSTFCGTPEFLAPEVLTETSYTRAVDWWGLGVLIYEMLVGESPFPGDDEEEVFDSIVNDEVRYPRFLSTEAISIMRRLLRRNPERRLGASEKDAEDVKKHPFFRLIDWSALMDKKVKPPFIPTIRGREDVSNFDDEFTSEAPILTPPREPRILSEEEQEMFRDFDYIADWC
T3 sequence (P06493 whole entry): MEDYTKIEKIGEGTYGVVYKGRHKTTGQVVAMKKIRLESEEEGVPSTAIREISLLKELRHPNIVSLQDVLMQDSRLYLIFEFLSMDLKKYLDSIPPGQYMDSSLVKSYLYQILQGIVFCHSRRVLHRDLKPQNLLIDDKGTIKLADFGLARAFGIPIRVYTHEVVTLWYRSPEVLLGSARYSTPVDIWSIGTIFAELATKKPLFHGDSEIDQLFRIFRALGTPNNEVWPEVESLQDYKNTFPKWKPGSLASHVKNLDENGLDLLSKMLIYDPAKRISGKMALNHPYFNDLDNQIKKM
T3 sequence (P24864 whole entry partner): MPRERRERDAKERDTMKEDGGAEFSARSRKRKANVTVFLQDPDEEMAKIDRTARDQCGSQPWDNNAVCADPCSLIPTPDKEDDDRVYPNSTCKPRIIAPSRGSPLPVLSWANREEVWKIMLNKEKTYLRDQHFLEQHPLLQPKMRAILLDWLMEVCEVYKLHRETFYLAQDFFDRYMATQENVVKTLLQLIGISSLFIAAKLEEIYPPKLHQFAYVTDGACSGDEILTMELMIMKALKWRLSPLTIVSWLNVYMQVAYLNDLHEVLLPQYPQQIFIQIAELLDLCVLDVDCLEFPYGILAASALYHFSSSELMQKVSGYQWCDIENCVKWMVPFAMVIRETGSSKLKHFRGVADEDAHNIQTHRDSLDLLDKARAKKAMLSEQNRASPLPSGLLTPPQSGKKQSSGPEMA
T11 sequence (P27448 whole entry): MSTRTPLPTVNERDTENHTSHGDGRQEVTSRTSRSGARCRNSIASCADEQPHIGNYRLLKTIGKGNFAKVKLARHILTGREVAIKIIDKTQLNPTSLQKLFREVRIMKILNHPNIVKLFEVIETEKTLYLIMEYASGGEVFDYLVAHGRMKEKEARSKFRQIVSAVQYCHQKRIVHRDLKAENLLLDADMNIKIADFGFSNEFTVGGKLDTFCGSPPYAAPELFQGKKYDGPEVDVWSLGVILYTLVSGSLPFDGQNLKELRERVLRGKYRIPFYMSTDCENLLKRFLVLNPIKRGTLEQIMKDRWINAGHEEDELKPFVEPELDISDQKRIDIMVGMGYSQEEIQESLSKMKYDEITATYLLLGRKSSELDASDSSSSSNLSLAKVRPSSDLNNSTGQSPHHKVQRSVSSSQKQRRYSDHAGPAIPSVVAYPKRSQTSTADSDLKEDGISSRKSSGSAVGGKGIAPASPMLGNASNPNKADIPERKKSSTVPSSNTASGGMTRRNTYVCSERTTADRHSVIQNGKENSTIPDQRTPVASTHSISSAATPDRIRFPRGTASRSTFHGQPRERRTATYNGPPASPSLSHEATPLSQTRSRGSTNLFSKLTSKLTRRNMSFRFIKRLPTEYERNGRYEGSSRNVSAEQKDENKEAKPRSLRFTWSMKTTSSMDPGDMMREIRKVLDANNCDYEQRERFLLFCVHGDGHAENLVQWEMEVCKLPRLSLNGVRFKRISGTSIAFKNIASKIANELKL
T9 sequence (P78368 whole entry): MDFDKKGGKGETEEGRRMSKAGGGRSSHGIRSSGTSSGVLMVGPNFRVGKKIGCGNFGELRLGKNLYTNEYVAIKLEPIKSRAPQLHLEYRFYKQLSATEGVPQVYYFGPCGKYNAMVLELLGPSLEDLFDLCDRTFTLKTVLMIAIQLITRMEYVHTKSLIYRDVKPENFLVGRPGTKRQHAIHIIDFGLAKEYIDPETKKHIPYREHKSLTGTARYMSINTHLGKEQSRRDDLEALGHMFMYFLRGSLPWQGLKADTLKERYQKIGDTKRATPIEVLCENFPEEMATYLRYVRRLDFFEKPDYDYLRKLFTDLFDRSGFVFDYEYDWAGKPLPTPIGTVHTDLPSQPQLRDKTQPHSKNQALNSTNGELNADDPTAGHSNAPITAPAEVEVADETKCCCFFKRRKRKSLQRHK
T2 sequence (P37023 22-503): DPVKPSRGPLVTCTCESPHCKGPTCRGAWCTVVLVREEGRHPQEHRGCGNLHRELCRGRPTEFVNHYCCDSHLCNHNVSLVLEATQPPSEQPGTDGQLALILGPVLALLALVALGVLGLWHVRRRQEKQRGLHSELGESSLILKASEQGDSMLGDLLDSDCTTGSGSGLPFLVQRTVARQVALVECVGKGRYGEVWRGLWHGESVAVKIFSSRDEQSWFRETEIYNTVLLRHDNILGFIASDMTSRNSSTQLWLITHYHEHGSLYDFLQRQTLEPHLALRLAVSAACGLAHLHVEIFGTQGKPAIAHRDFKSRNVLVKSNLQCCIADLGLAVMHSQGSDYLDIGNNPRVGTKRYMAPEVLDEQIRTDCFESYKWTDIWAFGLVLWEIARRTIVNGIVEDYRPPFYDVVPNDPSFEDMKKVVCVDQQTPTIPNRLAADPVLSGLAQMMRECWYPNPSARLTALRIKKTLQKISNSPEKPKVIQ
T5 sequence (Q16644 whole entry): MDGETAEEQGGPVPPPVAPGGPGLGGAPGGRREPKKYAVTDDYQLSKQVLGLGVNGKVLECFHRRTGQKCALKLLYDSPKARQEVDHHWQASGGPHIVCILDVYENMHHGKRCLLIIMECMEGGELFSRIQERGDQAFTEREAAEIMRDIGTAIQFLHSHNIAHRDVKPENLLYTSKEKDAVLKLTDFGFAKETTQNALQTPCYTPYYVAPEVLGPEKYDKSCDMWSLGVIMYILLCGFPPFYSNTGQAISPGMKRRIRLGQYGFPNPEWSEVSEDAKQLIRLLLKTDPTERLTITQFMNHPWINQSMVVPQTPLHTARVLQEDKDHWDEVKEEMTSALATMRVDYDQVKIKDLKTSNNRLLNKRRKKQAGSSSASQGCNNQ

With `c1ccc(CNc2cc(-c3c[nH]c4ncccc34)ccn2)cc1` [meriolin 36], the residual kinase activity in [1] (0.3 µM) is reported as 80 % of control; in [1] (3 µM) it was 36 % of control; in [2] (0.3 µM) it was 43 % of control; in [2] (3 µM), 9 % of control; in assay [3] (0.3 µM), 2 % of control; in assay [3] (3 µM), 0 % of control. The residual kinase activity in assay [4] (0.3 µM) is 43 % of control; in assay [4] (3 µM) it was 9 % of control; in assay [5] (3 µM), 90 % of control; in assay [6] (0.3 µM) it was 160 % of control; in assay [6] (3 µM), 39 % of control; in assay [7] (0.3 µM), 8 % of control. The residual kinase activity in assay [7] (3 µM) is 0 % of control; in [8] (0.3 µM) it was 72 % of control; in assay [8] (3 µM), 32 % of control; in assay [9] (0.3 µM), 19 % of control; in assay [9] (3 µM) it was 3 % of control; in assay [10] (0.3 µM), 68 % of control. For the same compound, the residual kinase activity is 25 % of control in [10] (3 µM), 89 % of control in [11] (0.3 µM) and 48 % of control in assay [11] (3 µM).

As to `COc1ccnc2[nH]cc(-c3cc(N)nc(N)c3)c12` [meriolin 16], the residual kinase activity in assay [1] (0.03 µM) is given as 85 % of control; in assay [1] (0.3 µM), 64 % of control; in [2] (0.03 µM), 101 % of control; in assay [2] (0.3 µM), 89 % of control; in assay [3] (0.03 µM) it was 42 % of control; in assay [3] (0.3 µM), 8 % of control. Moreover, the residual kinase activity was 77 % of control in assay [4] (0.03 µM); 17 % of control in assay [4] (0.3 µM); 99 % of control in [5] (0.03 µM); 87 % of control in assay [5] (0.3 µM); 98 % of control in [6] (0.03 µM); 83 % of control in [6] (0.3 µM). The residual kinase activity in assay [7] (0.03 µM) is on record as 90 % of control; in [7] (0.3 µM), 42 % of control; in [8] (0.03 µM), 106 % of control; in assay [8] (0.3 µM), 88 % of control; in [9] (0.03 µM), 86 % of control; in [9] (0.3 µM), 30 % of control. Moreover, the residual kinase activity was 87 % of control in assay [10] (0.03 µM), 37 % of control in assay [10] (0.3 µM), 99 % of control in assay [11] (0.03 µM) and 86 % of control in [11] (0.3 µM).
